{
  "source": "patent US20240025904A1",
  "about": "“PDE9 INHIBITORS FOR TREATING CARDIAC FAILURE” (Cardurion Pharmaceuticals, Inc., priority 2020, published 2024)",
  "key": {"[1]": {"test_system": "adult patients with sickle cell disease", "assay": "IMR-SCD-102 Phase 2a trial, plasma NT-proBNP", "format": "in vivo, human", "description": "IMR-SCD-102 is an ongoing Phase 2a randomized double-blind placebo-controlled trial testing Compound 1 (IMR-687) at 50 mg-200 mg daily as monotherapy or 50-100 mg in combination with background hydroxyurea therapy (Compound 1+HU). A protocol amendment later in the study allowed for sample collection and characterization of NT-proBNP levels in the combination cohort (Compound 1+HU versus HU alone). Plasma NT-proBNP was measured in 15 subjects (100% HbSS genotype) at randomization and again at 4 months. A 2:1 randomization schema favoring combination treatment translated to 10 subjects on Compound 1+HU and 5 on HU alone. Baseline, 4-month follow-up, and change in NT-proBNP levels were quantified. Further, whether the change in NT-proBNP level varied according to treatment and baseline NT-proBNP level was tested."}, "patient": {"test_system": "patient", "assay": "Administration with food, adverse event profile", "format": "in vivo", "settings": "once a day with food"}, "[2]": {"test_system": "aldosterone-infused and unilateral nephrectomized mouse (neph-aldo model of HFpEF)", "assay": "Uninephrectomy + d-aldosterone infusion + 1% NaCl mouse model of HFpEF", "format": "in vivo", "excerpt": "Mice subjected to uninephrectomy and aldosterone infusion for 4 to 6 weeks, accompanied by 1% NaCl intake, develop HFpEF with moderate hypertension, concentric left ventricle hypertrophy, pulmonary congestion, and echocardiographic evidence of diastolic dysfunction while maintaining a normal/preserved LVEF. These mice also show exercise impairment. At the molecular level, left ventricle tissue from these mice show an increase in natriuretic peptides, cardiac size and fibrosis, as well as an increase in the oxidative stress.\nModel 1: eight-week-old C57BL/6J male mice were anesthetized with 100 mg/kg ketamine and 10 mg/kg xylazine intraperitoneally. All mice underwent unilateral nephrectomy and then will receive a continuous infusion of d-aldosterone (0.30 μg/h) via osmotic minipumps. All mice were maintained on 1.0% sodium chloride drinking water. Mice were randomized to receive either vehicle or Compound 1 at 60 mg/kg/day or 100 mg/kg/day by oral gavage for 4 or 6 weeks (36 mice, N=6/group). The mice were housed in a standard-temperature, 12 h/12 h light/dark controlled room, with water and standard rodent diet available ad libitum. Mice were euthanized 4 or 6 weeks after the beginning of the treatment. It has been shown that administering of 60 mg/kg of Compound 1 in mice is equivalent to administering about 4.8 mg/kg of Compound 1 in adult human subjects. Similarly, it has been shown that administering 100 mg/kg of Compound 1 in mice is equivalent to administering about 8.1 mg/kg of Compound 1 in human subjects.\n(§1) Methods: Cardiac and renal responses to Compound 1 (60 mg/kg, 100 mg/kg) compared with vehicle were examined over 6-8 weeks in 3 adult male mouse models of HFpEF (1.5 mg/kg/d angiotensin-II infusion [ang-II]; uninephrectomy+0.30 μg/h d-aldosterone infusion+1% NaCl drinking water [neph-aldo]; and db/db [db]). Phenotyping included wheat germ agglutinin staining for cardiomyocyte cross-sectional area (CSA); RT-PCR for myocardial PDE9, natriuretic peptide, inflammatory and fibrosis marker transcript abundances; ELISA for plasma natriuretic peptides; and urinary albumin to creatinine ratio (UACR).\n(§2) P-value from Wilcoxon rank-sum test. Ang-II model (8-week old C57BL/6 mice were infused with ang-II at […] for 6 weeks with concomitant Compound 1 or vehicle). Neph+d-aldo+1% NaCl model (8-week old C57BL/6 mice underwent uninephrectomy then were infused with d-aldosterone for 6 weeks with ad-libitum 1% NaCl drinking water while receiving concomitant Compound 1 or vehicle). db model (20-week old BKS.Cg-Dock7m+/+Leprdb/J received vehicle or Compound 1 for 8 weeks). mRNA expression levels were normalized to GAPDH, Rpl4 and Eef1e1."}, "db/db mouse": {"test_system": "db/db mouse", "assay": "db/db mouse model of HFpEF", "format": "in vivo", "excerpt": "The db/db leptin receptor-deficient mouse has a point mutation in the diabetes (db) gene encoding the leptin receptor, which spontaneously causes morbid obesity accompanied by severe hyperglycemia secondary to type 2 diabetes. […] At the histological level, these mice hearts have enlarged cardiomyocytes, evidence of fibrosis, and capillary rarefaction. The db/db mice appear to represent the obese/metabolic HFpEF phenotype, with evidence of HF, whereas LVEF is preserved.\nModel 3: twenty-week old male diabetic-prone, obese db/db mice of the BKS.Cg-Dock7m+/+Leprdb/J strain will be randomly assigned (30 mice, n=10/group) to receive vehicle or chronic Compound 1 treatment at 60 mg/kg/day or 100 mg/kg/day. Treatment will be carried for 8 weeks using subcutaneous osmotic pumps. The mice will be housed in a standard-temperature, 12 h/12 h light/dark controlled room, with water and standard rodent diet available ad libitum.\nas §1, §2"}, "[3]": {"test_system": "angiotensin II-infused mouse (Ang-II model of HFpEF)", "assay": "Angiotensin II infusion mouse model of HFpEF", "format": "in vivo", "excerpt": "C57BL/6J mice develop compensatory concentric hypertrophy and fibrosis in response to angiotensin II. Pulmonary congestion, as well as exercise intolerance, are evident and seem to be related to angiotensin II-induced skeletal muscle abnormalities, including impaired mitochondrial function and skeletal muscle atrophy. In summary, if strain and dosage are optimized to mirror the human HFpEF phenotype, angiotensin II infusion appears to be a relevant HFpEF model.\nModel 2: eight-week-old C57BL/6J male mice were anesthetized with isoflurane and subcutaneously implanted with an osmotic minipump to continuously infuse angiotensin II in 10 mM acetic acid at a dose of 1.5 mg/kg per day over a period of 4 to 6 weeks. Experimental animal groups were randomly assigned to receive either vehicle or Compound 1 at 60 mg/kg/day or 100 mg/kg/day by oral gavage for 4 or 6 weeks (36 mice, N=6/group) over the same time period. The mice were housed in a standard-temperature, 12 h/12 h light/dark controlled room, with water and standard rodent diet available ad libitum. Mice were euthanized 4 or 6 weeks after angiotensin-II infusion. It has been shown that administering of 60 mg/kg of Compound 1 in mice is equivalent to administering about 4.8 mg/kg of Compound 1 in adult human subjects. Similarly, it has been shown that administering 100 mg/kg of Compound 1 in mice is equivalent to administering about 8.1 mg/kg of Compound 1 in human subjects.\nas §1, §2"}, "[4]": {"settings": "median, Neph + Aldo model, 6 weeks"}, "[5]": {"settings": "median, Neph + Aldo model, 6 weeks, normalized to GAPDH, Rpl4 and Eef1e1"}, "[6]": {"settings": "median, db/db model, 8 weeks, normalized to GAPDH, Rpl4 and Eef1e1"}, "[7]": {"settings": "median, Ang-II model, 6 weeks, normalized to GAPDH, Rpl4 and Eef1e1"}},
  "note": "Where “and” joins values, the source holds several entries; their conditions need not be identical. Equal values may be shown once.",
  "data": [
    {"smiles": "NC(=O)NO", "note": "[HU, hydroxyurea]", "values": [
      {"measurement": "treated subjects with greater than 50% reduction in NT-proBNP levels", "setting": "[1]; at 4 months", "result": "none"},
      {"measurement": "mean 4-month follow-up NT-proBNP level", "setting": "[1]; plasma, 4 months", "result": 436, "unit": "pg/mL"},
      {"measurement": "mean NT-proBNP higher at 4 months than baseline", "setting": "[1]; plasma, 4 months", "result": "27.0% and 27. %"},
      {"measurement": "mean increase of NT-proBNP, baseline to 4 months", "setting": "[1]; plasma, 4 months", "result": 93, "unit": "pg/mL"},
      {"measurement": "mean baseline NT-proBNP level", "setting": "[1]; plasma, at randomization", "result": 343, "unit": "pg/mL"},
      {"measurement": "average increase in NT-proBNP between baseline and 4 months", "setting": "[1]; subjects with baseline NT-proBNP ≥400 pg/ml", "result": 28, "unit": "%"}
    ]},
    {"smiles": "C[C@@H]1CN(Cc2ncccn2)C[C@H]1c1cn2c(C3CCOCC3)ncc2c(=O)[nH]1", "note": "(single isomer, unassigned) [Compound 1]", "values": [
      {"measurement": "effect of food on adverse event profile (nausea, emesis, headache)", "setting": "patient", "result": "reduce the adverse event profile dramatically"},
      {"measurement": "heart size and cardiomyocyte hypertrophy", "setting": "[2]; after 4 weeks of dosing at 60 and 100 mg/kg, FIGS. 2A, 2B", "result": "decreases"},
      {"measurement": "ANP and BNP markers of cardiac dysfunction", "setting": "[2]; dosing with 60 and 100 mg/kg, FIGS. 3A, 3B right side", "result": "decreases"},
      {"measurement": "PDE5 and PDE9 expression", "setting": "[2]; in combination with nephrectomy-aldosterone, FIG. 4B", "result": "increased"},
      {"measurement": "heart fibrosis (TGF-ß1 and downstream targets Fibronectin and Collagen type I and III)", "setting": "[2]; in combination with nephrectomy-aldosterone, FIG. 7", "result": "decreases"},
      {"measurement": "markers of myocardial inflammation", "setting": "[2]; in combination with nephrectomy-aldosterone, FIG. 8B", "result": "decreases"},
      {"measurement": "Plasma ANP", "setting": "[2]; [4]", "result": 740, "unit": "pg/mL"},
      {"measurement": "Plasma BNP", "setting": "[2]; [4]", "result": 1216, "unit": "pg/mL"},
      {"measurement": "Urine UACR (urinary albumin to creatinine ratio)", "setting": "[2]; [4]", "result": 48.4, "unit": "µg/mg"},
      {"measurement": "Myocardial mRNA PDE9", "setting": "[2]; median, Neph + Aldo model, 6 weeks, Compound 1 60 mg/kg, 100 mg/kg, normalized to GAPDH, Rpl4 and Eef1e1", "result": 3.7},
      {"measurement": "Myocardial mRNA COL3A1", "setting": "[2]; [5]", "result": 2.6},
      {"measurement": "Myocardial mRNA IL-1b", "setting": "[2]; [5]", "result": 2.5},
      {"measurement": "Myocardial mRNA NPPA", "setting": "[2]; [5]", "result": 4.9},
      {"measurement": "Myocardial mRNA NPPB", "setting": "[2]; [5]", "result": 4.2},
      {"measurement": "Heart rate and blood pressure, Compound 1 vs vehicle treated mice", "setting": "[2]; neph-aldo model", "result": "did not differ"},
      {"measurement": "reduction of median cardiomyocyte size (CSA) compared with vehicle", "setting": "[2]; neph-aldo model, Compound 1 60 mg/kg, 100 mg/kg, p<0.003", "result": 58, "unit": "%"},
      {"measurement": "Heart rate and blood pressure, Compound 1 vs vehicle treated mice", "setting": "db/db mouse; db model", "result": "did not differ"},
      {"measurement": "reduction of median cardiomyocyte size (CSA) compared with vehicle", "setting": "db/db mouse; db model, Compound 1 60 mg/kg, 100 mg/kg, p<0.003", "result": 35, "unit": "%"},
      {"measurement": "Plasma ANP", "setting": "db/db mouse; median, db/db model, 8 weeks", "result": 714, "unit": "pg/mL"},
      {"measurement": "Plasma BNP", "setting": "db/db mouse; median, db/db model, 8 weeks", "result": 830, "unit": "pg/mL"},
      {"measurement": "Urine UACR (urinary albumin to creatinine ratio)", "setting": "db/db mouse; median, db/db model, 8 weeks", "result": 132.5, "unit": "µg/mg"},
      {"measurement": "Myocardial mRNA PDE9", "setting": "db/db mouse; median, db/db model, 8 weeks, Compound 1 60 mg/kg, 100 mg/kg, normalized to GAPDH, Rpl4 and Eef1e1", "result": 1.5},
      {"measurement": "Myocardial mRNA COL3A1", "setting": "db/db mouse; [6]", "result": 1.1},
      {"measurement": "Myocardial mRNA IL-1b", "setting": "db/db mouse; [6]", "result": 3.6},
      {"measurement": "Myocardial mRNA NPPA", "setting": "db/db mouse; [6]", "result": 1.7},
      {"measurement": "Myocardial mRNA NPPB", "setting": "db/db mouse; [6]", "result": 2.2},
      {"measurement": "heart size and cardiomyocyte hypertrophy", "setting": "[3]; 6 weeks of dosing at 60 and 100 mg/kg, FIGS. 1A, 1B", "result": "decreases"},
      {"measurement": "Heart rate and blood pressure, Compound 1 vs vehicle treated mice", "setting": "[3]; ang-II model", "result": "did not differ"},
      {"measurement": "reduction of median cardiomyocyte size (CSA) compared with vehicle", "setting": "[3]; ang-II model, Compound 1 60 mg/kg, 100 mg/kg, p<0.003", "result": 54, "unit": "%"},
      {"measurement": "ANP and BNP markers of cardiac dysfunction", "setting": "[3]; dosing with 60 and 100 mg/kg, FIGS. 3A, 3B left side", "result": "decreases"},
      {"measurement": "PDE5 and PDE9 expression", "setting": "[3]; in combination with Angiotensin II, FIG. 4A", "result": "increased"},
      {"measurement": "markers of myocardial inflammation", "setting": "[3]; in combination with Angiotensin II, FIG. 8A", "result": "decreases"},
      {"measurement": "heart fibrosis (TGF-ß1 and downstream targets Fibronectin and Collagen type I and III)", "setting": "[3]; in combination with Angiotensin II, FIGS. 6A, 6B", "result": "decreases"},
      {"measurement": "Plasma ANP", "setting": "[3]; median, Ang-II model, 6 weeks", "result": 968, "unit": "pg/mL"},
      {"measurement": "Plasma BNP", "setting": "[3]; median, Ang-II model, 6 weeks", "result": 2376, "unit": "pg/mL"},
      {"measurement": "Urine UACR (urinary albumin to creatinine ratio)", "setting": "[3]; median, Ang-II model, 6 weeks", "result": 95.5, "unit": "µg/mg"},
      {"measurement": "Myocardial mRNA PDE9", "setting": "[3]; median, Ang-II model, 6 weeks, Compound 1 60 mg/kg, 100 mg/kg, normalized to GAPDH, Rpl4 and Eef1e1", "result": 1.7},
      {"measurement": "Myocardial mRNA COL3A1", "setting": "[3]; [7]", "result": 1.5},
      {"measurement": "Myocardial mRNA IL-1b", "setting": "[3]; [7]", "result": 1.9},
      {"measurement": "Myocardial mRNA NPPA", "setting": "[3]; [7]", "result": 1.4},
      {"measurement": "Myocardial mRNA NPPB", "setting": "[3]; [7]", "result": 2.0}
    ]}
  ]
}
